From publication PMC6743422, “Preclinical disposition of MGS0274 besylate, a prodrug of a potent group II metabotropic glutamate receptor agonist MGS0008 for the treatment of schizophrenia” (Pharmacology Research & Perspectives, 2019)
Where two headings read alike, the source gives them in different places.

Key:
[1] = parameters: method as in PMID 17712352, PMID 11744608; settings: dogs; cited from earlier work
[2] = humans, cited from earlier work; for oral bioavailability compared with parent compounds: transportable prodrugs
[3] = parameters: method as in PMID 25382826, PMID 17228865; settings: rats; cited from earlier work
[4] = system: positive and negative symptoms of schizophrenia; parameters: method as in PMID 17767166; settings: phase 2 proof-of-concept trial, compared with placebo; cited from earlier work
schizophrenia = system: schizophrenia; parameters: method as in PMID 24772351; settings: phase 3 clinical trial; cited from earlier work
[5] = parameters: method as in PMID 25382826; settings: monkeys; cited from earlier work
[6] = parameters: method as in PMID 17767166; settings: humans; cited from earlier work
[7] = Hydrolytic activity against MGS0274 in rat serum and tissue S9 fractions; type: in vitro ADME; settings: rat serum
Procedure: (§1) Rat, monkey, or human serum that had been pre‐incubated for 5 minutes at 37°C was spiked with MGS0274 besylate at 10 μmol/L. After incubation for 5 to 60 minutes, the reaction was terminated by adding acetonitrile/methanol/formic acid (90:10:1, v/v/v) containing [^13C2 ^15N]MGS0008, and the resultant mixture was centrifuged. Tissue S9 fractions with final protein concentrations of 0.25 mg/mL were pre‐incubated for 5 minutes at 37°C, then spiked with MGS0274 besylate at 10 μmol/L. After incubation for 1 to 5 minutes, the reaction was terminated by adding acetonitrile/methanol/formic acid (90:10:1, v/v/v) containing [^13C2 ^15N]MGS0008, and the resultant mixture was centrifuged. Aliquots of the supernatant were subjected to bioanalysis using LC‐MS/MS (see Table S1‐C). The formation rate of MGS0008 from MGS0274 in the reaction mixture was calculated using the following equation: Formation ratenmol/min/mg protein=concentration of MGS0008,nmol/mL/incubation time,min/protein concentration,mg protein/mL

[8] = Hydrolytic activity against MGS0274 in monkey serum and tissue S9 fractions; type: in vitro ADME; settings: monkey serum
Procedure: as §1

[9] = system: rat cryopreserved hepatocytes; assay: In vitro metabolite profiling in rat cryopreserved hepatocytes; type: in vitro ADME; settings: rat hepatocytes 0.5 million cells/mL, 37°C, 1 h, [14C]MGS0274 besylate 10 μmol/L
Procedure: (§2) Rat, monkey, or human cryopreserved hepatocytes in Leivovitz L‐15 medium at 0.5 million cells/mL were incubated at 37°C for 1 hour with [^14C]MGS0274 besylate at 10 μmol/L. The reaction was terminated by adding 10% w/v trichloroacetic acid solution, and the resultant mixture was centrifuged. Aliquots of the supernatant were subjected to bioanalysis using high‐performance liquid chromatography equipped with radiochemical flow detection (RI‐HPLC) (see Table S1‐B). Aliquots of the supernatant from unlabeled incubation samples and authentic standards were also injected into a liquid chromatography‐mass spectrometry (LC‐MS) system under the same chromatographic conditions to compare their chromatographic retention times and mass spectral data (see Table S1‐B).

Stability in buffers = type: physicochemical; settings: pH 1.2 and 6.5 as surrogate for gastrointestinal fluids; data not shown
[10] = Hydrolytic activity against MGS0274 in human serum and tissue S9 fractions; type: in vitro ADME
Procedure: as §1

[11] = Plasma protein binding in monkey plasma; type: in vitro ADME, cynomolgus monkey; settings: pH 7.4, 0.1, 1, and 10 μg/mL as MGS0274, equilibrium dialysis 5 h, 37°C
Procedure: (§3) [^14C]MGS0008 was spiked with rat, monkey, or human plasma at final concentrations of 0.1, 1, and 10 μg/mL. The protein binding was evaluated according to a previously published method.11 MGS0274 besylate was spiked with monkey or human plasma at final concentrations of 0.1, 1, and 10 μg/mL as MGS0274, which was placed in a donor compartment of a 96‐well equilibrium dialysis plate (Dialysis Membrane Strips MWCO 12‐14K; HT Dialysis, Gales Ferry, CT). Sodium phosphate buffer (0.05 M, pH7.4) containing sodium chloride (0.07 M) was placed in a reservoir compartment. After incubation for 5 hours at a rate of 100 rpm at 37°C in humidified air‐5% CO2, aliquots of the plasma and dialysate were collected from each compartment, mixed with acetonitrile/methanol (9:1, v/v) containing [^2H4]MGS0274 besylate, and centrifuged. Aliquots of the supernatant were subjected to bioanalysis using liquid chromatography‐tandem mass spectrometry (LC‐MS/MS) (see Table S1‐A). The protein binding (%) was calculated based on the instruction manual of the 96‐well plate.

[12] = system: monkey cryopreserved hepatocytes; assay: In vitro metabolite profiling in monkey cryopreserved hepatocytes; type: in vitro ADME; settings: monkey hepatocytes 0.5 million cells/mL, 37°C, 1 h, [14C]MGS0274 besylate 10 μmol/L
Procedure: as §2

[13] = Plasma protein binding in human plasma; type: in vitro ADME; settings: pH 7.4, 0.1, 1, and 10 μg/mL as MGS0274, equilibrium dialysis 5 h, 37°C
Procedure: as §3

[14] = system: human cryopreserved hepatocytes; assay: In vitro metabolite profiling in human cryopreserved hepatocytes; type: in vitro ADME; settings: human hepatocytes 0.5 million cells/mL, 37°C, 1 h, [14C]MGS0274 besylate 10 μmol/L
Procedure: as §2

[15] = parameters: method as in earlier work; settings: cited from earlier work
CYP1A2 mRNA = assay: CYP induction in primary cultured cryopreserved human hepatocytes, CYP1A2 mRNA; type: in vitro ADME; settings: positive control omeprazole 50 μM
Procedure: (§4) The primary cultured cryopreserved human hepatocytes were plated in a collagen‐coated 96‐well plate (Becton Dickinson, Franklin Lakes, NJ) with Williams’ Medium E (Invitrogen, Carlsbad, CA) containing Geltrex^TM (Invitrogen) and Maintenance Supplements (Invitrogen) and maintained in humidified air‐5% CO2 at 37°C for 3 days. Then, the cells were cultured for three consecutive 24‐hour treatments with MGS0008 (3‐30 µmol/L), with MGS0274 besylate (3‐30 µmol/L), or with positive controls (omeprazole for CYP1A2 at 50 µmol/L, phenobarbital for CYP2B6 at 1000 µmol/L, or rifampicin for CYP3A4 at 10 µmol/L). The mRNA expression levels of CYP1A2, 2B6, and 3A4 were measured using the real‐time polymerase chain reaction (RT‐PCR) method (7500 Fast RT‐PCR system; Applied Biosystems, Foster City, CA) with TaqMan® Fast Universal PCR Master Mix (probe ID: Hs00167927_m1 for CYP1A2, Hs04183483_g1 for CYP2B6, and Hs00604506_ml for CYP3A4; Applied Biosystems). The fold change in the mRNA expression was calculated using the 2^‐ΔΔCT method.22

CYP2B6 mRNA = assay: CYP induction in primary cultured cryopreserved human hepatocytes, CYP2B6 mRNA; settings: positive control phenobarbital 1000 μM
Procedure: as §4

## N[C@@]1(C(=O)O)CC[C@H]2[C@H](C(=O)O)[C@H]21 [LY354740, (+)‐2‐aminobicyclo[3.1.0]hexane‐2,6‐dicarboxylic acid]
[1]
  oral bioavailability: high
[2]
  oral bioavailability: low

## N[C@@]1(C(=O)O)CS(=O)(=O)[C@H]2[C@H](C(=O)O)[C@H]21 [LY404039]
[3]
  oral bioavailability: high
[2]
  oral bioavailability: low

## C[C@H](N)C(=O)N[C@@]1(C(=O)O)CC[C@H]2[C@H](C(=O)O)[C@H]21 [LY544344]
[2]
  oral bioavailability compared with parent compounds: improved oral bioavailability

## CSCC[C@H](N)C(=O)N[C@@]1(C(=O)O)CS(=O)(=O)[C@H]2[C@H](C(=O)O)[C@H]21 [LY2140023]
[4]
  effect on positive and negative symptoms of schizophrenia: significantly improved
schizophrenia
  efficacy in schizophrenia: failed to demonstrate efficacy
[2]
  oral bioavailability compared with parent compounds: improved oral bioavailability
[5]
  systemic exposure to the prodrug, share of circulating radioactivity: ~15%
[6]
  systemic exposure to the prodrug, relative to its parent compound: roughly 30%

## CC1CCC(C(C)C)C(OC(=O)OC(C)OC(=O)C2C3CC(F)C(N)(C(=O)O)C32)C1 (stereo not drawn) [MGS0274]
[7]
  stability in serum: unstable
[8]
  stability in serum: stable
[9]
  metabolite profile of MGS0274: nearly and completely hydrolyzed to MGS0008
Stability in buffers
  stability in buffers: confirmed
[10]; human kidney S9 0.25 mg/mL, MGS0274 besylate 10 μmol/L, 37°C, MGS0008 not detected in the reaction mixture
  Formation rate of MGS0008: no apparent hydrolytic activity
[10]; human serum
  stability in serum: stable
[11]
  fraction unbound at 5 h: 0.065 to 0.076
[12]
  metabolite profile of MGS0274: nearly and completely hydrolyzed to MGS0008
[13]
  fraction unbound at 5 h: 0.039 to 0.043
[14]
  metabolite profile of MGS0274: nearly and completely hydrolyzed to MGS0008

## CC(C)[C@@H]1CC[C@@H](C)C[C@H]1O [l‐menthol]
[15]
  acceptable daily intake: 4 mg/kg

## COc1ccc2[nH]c([S+]([O-])Cc3ncc(C)c(OC)c3C)nc2c1 (stereo not drawn) [omeprazole, reference compound]
CYP1A2 mRNA; hepatocyte lot Hu1487
  Fold change of mRNA expression level CYP1A2: 35.9 fold
CYP1A2 mRNA; hepatocyte lot Hu8114
  Fold change of mRNA expression level CYP1A2: 20.7 fold
CYP1A2 mRNA; hepatocyte lot Hu8123
  Fold change of mRNA expression level CYP1A2: 59.2 fold

## CCC1(c2ccccc2)C(=O)NC(=O)NC1=O [phenobarbital, reference compound]
CYP2B6 mRNA; hepatocyte lot Hu1487
  Fold change of mRNA expression level CYP2B6: 16.4 fold
CYP2B6 mRNA; hepatocyte lot Hu8114
  Fold change of mRNA expression level CYP2B6: 35.1 fold
CYP2B6 mRNA; hepatocyte lot Hu8123
  Fold change of mRNA expression level CYP2B6: 45.7 fold
